Like-named read-outs stand apart in the source and are kept apart here.
What was measured:
[1] = target: T1, human 5-HT1A receptor subtype (Homo sapiens, UniProt P08908); assay: 5-HT1A receptor binding assay with [3H]8-OH-DPAT on CHO cell membranes; conditions: [3H]8-OH-DPAT 1.5 nM
T1 construct: expressed in transfected cells
T1 sequence (P08908 1-422): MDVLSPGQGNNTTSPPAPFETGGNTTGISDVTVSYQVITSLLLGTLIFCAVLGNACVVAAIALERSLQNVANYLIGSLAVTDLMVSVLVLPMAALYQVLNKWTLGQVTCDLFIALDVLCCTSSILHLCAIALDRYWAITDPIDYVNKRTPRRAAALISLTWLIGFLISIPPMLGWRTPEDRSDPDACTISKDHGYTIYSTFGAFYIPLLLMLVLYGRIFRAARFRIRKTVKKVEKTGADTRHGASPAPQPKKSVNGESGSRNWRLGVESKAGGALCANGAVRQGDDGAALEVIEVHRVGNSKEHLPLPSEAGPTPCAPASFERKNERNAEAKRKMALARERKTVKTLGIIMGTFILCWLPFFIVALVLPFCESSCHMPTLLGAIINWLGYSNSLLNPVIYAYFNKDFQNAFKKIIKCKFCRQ
Protocol: (§1) The PCR cloning of the human 5-HT1A receptor subtype from a human genomic library has been described previously Chanda et al., Mol. Pharmacol., 43:516 (1993). A stable Chinese hamster ovary cell line expressing the human 5-HT1A receptor subtype (5-HT1A.CHO cells) was employed throughout this study. Cells were maintained in DMEM supplemented with 10% foetal calf serum, non-essential amino acids and penicillin/ streptomycin.
Cells were grown to 95-100% confluency as a monolayer before membranes were harvested for binding studies. Cells were gently scraped from the culture plates, transferred to centrifuge tubes, and washed twice by centrifugation (2000 rpm for 10 min., 4°C) in buffer (50 mM Tris; pH 7.5). The resulting pellets were aliquoted and placed at -80°C. On the day of assay, the cells were thawed on ice, and resuspended in buffer. Studies were conducted using [^3H]8-OH-DPAT as the radioligand. The binding assay was performed in 96 well microtiter plates in a final total volume of 250 µL of buffer. Competition experiments were performed by using 7 concentrations of unlabelled drug and a final ligand concentration of 1.5 nM. Nonspecific binding was determined in the presence of 10 µM 5HT. Saturation analysis was conducted by using [^3H]8-OH-DPAT at concentrations ranging from 0.3-30 nM. Following a 30 minute incubation at room temperature, the reaction was terminated by the addition of ice cold buffer and rapid filtration using a M-96 Brandel Cell Harvester (Gaithersburg, MD) through a GF/B filter presoaked for 30 minutes in 0.5% polyethyleneimine.

[2] = target: T2, 5-HT1A cloned receptor membrane fragments (Homo sapiens, UniProt P08908); assay: [35S]-GTPγS binding assay; assay type: biochemical; conditions: read-out: GTPγS (%EMax)
T2 construct: expressed in transfected cells
T2 sequence (P08908 1-422): T1 sequence (P08908 1-422)
Protocol: The [^35S]-GTPγS binding assay was similar to that used by Lazareno and Birdsall, Br. J. Pharmacol. 109:1120 (1993). Briefly, 5-HT1A cloned receptor membrane fragments (as used for 5-HT1A receptor binding assays) were stored at -70°C until needed. When needed, membranes were rapidly thawed, centrifuged at 40,000 x g for 10 minutes and resuspended at 4 °C for 10 minutes in assay buffer (25 mM HEPES, 3 mM MgCl2, 100 mM NaCl, 1 mM EDTA, 10 uM GDP, […], pH 8.0). These membranes were then incubated for 30 minutes at 30°C with [^35S]GTPgS (1 nM) in the presence of vehicle, test compound (one to eight concentrations), or excess 8-OH-DPAT to define maximum agonist response. All reactions are terminated by the addition of ice cold Tris buffer followed by rapid filtration using a Tom Tech® filtration device to separate bound from free [^35S]GTPgS. Agonists produce an increase in the amount of [^35S]GTPgS bound whereas antagonists produce no increase in binding. Bound radioactivity was counted and analyzed as above.

[3] = target: T3, human 5-HT1A receptor subtype (5-HT1A.CHO cells) (Homo sapiens, UniProt P08908); assay: cAMP formation in forskolin-treated cells (cAMP SPA assay); assay type: cell-based; conditions: value in brackets; forskolin 1 uM
T3 construct: expressed in transfected cells
T3 sequence (P08908 1-422): T1 sequence (P08908 1-422)
Protocol: as §1
The following assays were performed by incubating the cells with DMEM containing 25 mM HEPES, 5 mM theophylline and 10 µM pargyline for a period of 20 minutes at 37°C. Functional activity was assessed by treating the cells with forskolin (1 uM final concentration) followed immediately by test compound (6 concentrations) for an additional 10 minutes at 37°C. In separate experiments, 6 concentrations of antagonist were preincubated for 20 minutes prior to the addition of 10 nM 8-OH-DPAT and forskolin. The reaction was terminated by removal of the media and addition of 0.5 ml ice cold assay buffer. Plates were stored at -20°C prior to assessment of cAMP formation by a cAMP SPA assay (Amersham).

[4] = value in brackets, or a lone % in the cell, maximum agonist response defined by excess 8-OH-DPAT

SMILES	Ki [1] [nM]	Emax [2, 4] [%]	Emax [3] [%]	Emax [2] [%]
c1cc(N2CCN([C@H]3CC[C@@H](c4c[nH]c5ccccc54)CC3)CC2)c2cc[nH]c2c1 [Example 1a, 3-[cis-4-[4-(1H-Indol-4-yl)-1-piperazinyl]cyclohexyl]-1H-indole]	32	0	0	
c1cc(N2CCN([C@H]3CC[C@H](c4c[nH]c5ccccc54)CC3)CC2)c2cc[nH]c2c1 [Example 1b, 3-[trans-4-[4-(1H-indol-4-yl)-1-piperazinyl]cyclohexyl]-1H-indole]	5.29	32	77	
Fc1cccc2[nH]cc([C@H]3CC[C@@H](N4CCN(c5cccc6[nH]ccc56)CC4)CC3)c12 [Example 2a, 4-Fluoro-3-[cis-4-[4-(1H-indol-4-yl)-1-piperazinyl]cyclohexyl]-1H-indole]	117			
Fc1cccc2[nH]cc([C@H]3CC[C@H](N4CCN(c5cccc6[nH]ccc56)CC4)CC3)c12 [Example 2b, 4-Fluoro-3-[trans-4-[4-(1H-indol-4-yl)-1-piperazinyl]cyclohexyl]-1H-indole]	22.3			
Fc1ccc2[nH]cc([C@H]3CC[C@@H](N4CCN(c5cccc6[nH]ccc56)CC4)CC3)c2c1 [Example 3a, 5-Fluoro-3-[cis-4-[4-(1H-indot-4-yl)-1-piperazinyl]cyclohexyl]-1H-indole]	36.7		0	10
Fc1ccc2[nH]cc([C@H]3CC[C@H](N4CCN(c5cccc6[nH]ccc56)CC4)CC3)c2c1 [Example 3b, 5-Fluoro-3-[trans-4-[4-(1H-indol-4-yl)-1-piperazinyl]cyclohexyl]-1H-indole]	4.62		0	51
Fc1ccc2c(c1)[nH]cc2[C@H]1CC[C@@H](N2CCN(c3cccc4[nH]ccc34)CC2)CC1 [Example 4a, 6-Fluoro-3-[cis-4-[4-(1H-indol-4-yl)-1-piperazinyl]cyclohexyl]-1H-indole]	33.5	0	0	
Fc1ccc2c(c1)[nH]cc2[C@H]1CC[C@H](N2CCN(c3cccc4[nH]ccc34)CC2)CC1 [Example 4b, 6-Fluoro-3-[trans-4-[4-(1H-indol-4-yl)-1-piperazinyl]cyclohexyl]-1H-indole]	5.45		7.5	
Clc1ccc2[nH]cc([C@H]3CC[C@H](N4CCN(c5cccc6[nH]ccc56)CC4)CC3)c2c1 [Example 6b, 5-Chloro-3-[trans-4-[4-(1H-indol-4-yl)-1-piperazinyl]cyclohexyl]-1H-indole]	58.3			
N#Cc1ccc2[nH]cc([C@H]3CC[C@@H](N4CCN(c5cccc6[nH]ccc56)CC4)CC3)c2c1 [Example 7a, 3-{4-[(1,4-cis)-4-(1H-indol-4-yl)-piperazinyl-1-yl]cyclohexyl} -1H-indole-5-carbonitrile]			0	
COc1ccc2[nH]cc([C@H]3CC[C@@H](N4CCN(c5cccc6[nH]ccc56)CC4)CC3)c2c1 [Example 8a, 5-Methoxy-3-[cis-4-[4-(1H-indol-4-yl)-1-piperazinyl]cyclohexyl]-1H-indole]	60.3	0	0	
COc1ccc2[nH]cc([C@H]3CC[C@H](N4CCN(c5cccc6[nH]ccc56)CC4)CC3)c2c1 [Example 8b, 5-Methoxy-3-[trans-4-[4-(1H-indol-4-yl)-1-piperazinyl]cyclohexyl]-1H-indole]	2.87	32	77	
Cc1[nH]c2ccccc2c1[C@H]1CC[C@@H](N2CCN(c3cccc4[nH]ccc34)CC2)CC1 [Example 9a, 3-[cis-4-[4-(1H-Indol-4-yl)-1-piperazinyl]cyclohexyl] -2-methyl-1H-indole]	87.1			
Cc1[nH]c2ccccc2c1[C@H]1CC[C@H](N2CCN(c3cccc4[nH]ccc34)CC2)CC1 [Example 9b, 3-[trans-4-[4-(1H-Indol-4-yl)-1-piperazinyl]cyclohexyl] -2-methyl-1H-indole]	13			
c1cc(N2CCN([C@H]3CC[C@@H](c4c[nH]c5ncccc54)CC3)CC2)c2cc[nH]c2c1 [Example 10a, 3-{(1,4-cis)-4-[4-(1H-Indole-4-yl)-piperazin-1-yl]-cyclohexyl}-1H-pyrrolo[2,3-b]pyridine]			0	
Fc1ccc2[nH]cc([C@H]3CC[C@@H](N4CCN(c5cccc6c5OCCO6)CC4)CC3)c2c1 [Example 24a, 3-{(1,4-cis)-4-[4-(2,3-Dihydro-benzo[1,4]dioxin-5-yl)-piperazin-1-yl]-cyclohexyl}-5-fluoro-1H-indole]				15.4
Fc1ccc2[nH]cc([C@H]3CC[C@H](N4CCN(c5cccc6c5OCCO6)CC4)CC3)c2c1 [Example 24b, 3-{(1,4-trans)-4-[4-(2,3-Dihydro-benzo[1,4]dioxin-5-yl)-piperazin-1-yl]-cyclohexyl}-5-fluoro-1H-indole]				73
Fc1ccc2c(c1)[nH]cc2[C@H]1CC[C@@H](N2CCN(c3cccc4c3OCCO4)CC2)CC1 [Example 25a, 3-{(1,4-cis)-4-[4-(2,3-Dihydro-benzo[1,4]dioxin-5-yl)-piperazin-1-yl]-cyclohexyl}-6-fluoro-1H-indole]				9
Fc1ccc2[nH]cc([C@H]3CC[C@@H](N4CCN(c5cccc6cccnc56)CC4)CC3)c2c1 [Example 27a, 8-{4-[(1,4-cis)-4-(5-Fluoro-1H-indol-3-yl)-cyclohexyl] -piperazin-1-yl}-quinoline]			0	20
Fc1ccc2[nH]cc([C@H]3CC[C@H](N4CCN(c5cccc6cccnc56)CC4)CC3)c2c1 [Example 27b, 8-{4-[(1,4-trans)-4-(5-Fluoro-1H-indol-3-yl)-cyclohexyl] -piperazin-1-yl}-quinoline]				66
Cn1cc([C@H]2CC[C@@H](N3CCN(c4cccc5cccnc45)CC3)CC2)c2cc(F)ccc21 [Example 28, 8-{4-(1,4-cis)-4-[4-(5-Fluoro-1-methyl-1H-indol-3-yl)-cyclohexyl] -piperazin-1-yl}-quinoline]			0	0
N#Cc1ccc2[nH]cc([C@H]3CC[C@@H](N4CCN(c5cccc6cccnc56)CC4)CC3)c2c1 [Example 29a, 3-[(1,4-cis)-4-(4-Quinolin-8-yl-piperazin-1-yl)-cyclohexyl] -1H-indole-5-carbonitrile]				23
COc1cc(N2CCN([C@H]3CC[C@@H](c4c[nH]c5ccc(C#N)cc54)CC3)CC2)c2ncccc2c1 [Example 44c, 3-{(1,4-cis)-4-[4-(6-Methoxy-quinolin-8-yl)-piperazin-1-yl]-cyclohexyl}-1H-indole-5-carbonitrile]		0	0	

From patent EP1147083B1, “ARYLPIPERAZINYL-CYCLOHEXYL INDOLE DERIVATIVES FOR THE TREATMENT OF DEPRESSION” (Wyeth, priority 1999, dated 2000)
